Data set [1] deals with arrhythmias. Kind of data set: Arrhythmias (PVD, VTAC) during ischemia in dogs. The format is in vivo, dog. How it is done: (§1) Thirteen mongrel dogs were anesthetized with phenobarbital. […] C.V. Dis. 20; 55 (1977). […] Two of the surviving saline-treated animals fibrillated. […] The range was 4.4 to 100 μM.
One consequence of myocardial ischemia is arrhythmia and the frequency of arrhythmias is related to the degree of reduced blood flow. […] Electrocardiograms recorded during ischemia of Example III were analyzed for the number of premature ventricular depolarizations (PVD) and ventricular tachycardia (VTAC) episodes.

Data set [2] relates to ischemic myocardium. In words: Regional myocardial blood flow during coronary artery occlusion (radiolabelled microspheres). The class given is in vivo, dog. From the text:
FIG. 4. […] The means plus the standard deviations are graphed. […] Thirteen mongrel dogs were anesthetized with phenobarbital. […] C.V. Dis. 20; 55 (1977).

Data set [3] concerns human splenic lymphoblast cell line (WI-L2). In words: Adenosine excretion by human lymphoblasts during ATP breakdown (2-deoxyglucose). The format is cell-based. How it is done: The history and properties of the cell line have been described by Hershfield et al. in Science, Vol. 197, p. 1284, 1977.
Catabolism of cellular ATP stores was stimulated by adding either 2-deoxyglucose or a calcium ionophore. At various times, the amount of adenosine released by the cells into the supernatant, or the amount of nucleotides remaining in the cells, was determined by mixing 30 μl of chilled 4.4N perchloric acid with 300 μl of supernatants, or by adding 300 μl of chilled 0.4N perchloric acid to the cells collected as pellets and centrifuging the mixtures at 500×G for 10 minutes at 4° C. […] 1245, 1975. Following centrifugation at 1500×G for three minutes at 4° C., the aqueous phase is removed and frozen at -20° C. until assayed for adenosine, inosine, or for nucleotides. Adenosine was evaluated isocratically on a C-18 microBondapak reverse phase column equilibrated with 4 millimolar potassium phosphate, (pH 3.4):acetonitrile 60% in water (95:5 v/v) buffer. Adenosine elutes at 8-10 minutes, and its identity was confirmed by its sensitivity to adenosine deaminase and by spiking with adenosine standards. The extracted samples from the cell pellet were analyzed for nucleotides by high pressure liquid chromatography on a Whatman Partisil-10 (SAX) column equilibrated with 10 millimolar potassium phosphate, pH 3.78, and eluted with a linear gradient to a 0.25 molar potassium phosphate, 0.5 molar KCl, pH 3.45. […] Peaks were quantitated by comparison with high pressure liquid chromatography analysis of suitable standards.
Cells were grown to about 0.5×10^6 cells/ml (mid-log phase) in FIG. 2 and to about 1.0×10^6 cells/ml (early stationary phase) in FIGS. 7-9.

The test system of data set [4] is adenosine. Kind of data set: Coronary venous adenosine concentrations during coronary artery occlusion in dogs. The format is in vivo, dog. Here is the method:
FIG. 3. […] Coronary venous blood was collected into chilled 2N perchloric acid at various times before and after coronary artery occlusion. Supernatants from these extracts were neutralized with alamine and freon and evaluated by high performance liquid chromotography.
as §1

Data set [5] can be described thus: Plasma, CSF, erythrocyte and urine measurements in the patient trial. The format is in vivo, human. An excerpt:
Following authorization, therapeutic trials with AICA riboside were started in two patients with adenylosuccinase deficiency (autism). […] On Day 55, both patients were briefly readmitted for clinical, biochemical and psychiatric evaluation. […] Treatment was maintained until Day 71, and arrested at that date.
A correct assessment of the renal loss of the nucleoside could not be obtained.

Setting [6] is: dogs 1-6 of the AICA riboside group.
The mark [7] stands for this setting: one hour after intravenous administration.

One molecule from patent US4912092A, “Methods for increasing extracellular adenosine and for stabilizing mast cells” (The Regents of the University of California, priority 1987, dated 1990) can be followed below.

Several values for one entry are separate records, joined by “and”; a condition that tells them apart may be missing. Identical values can stand only once.

`NC(=O)c1ncn([C@@H]2O[C@H](CO)[C@@H](O)[C@H]2O)c1N` [AICA riboside, 5-amino-4-imidazolecarboxamide riboside]: the “VTAC, average” value in data set [1] (average of six dogs, saline 18.2, p<0.01) was 4.7 EPISODES/H. In addition, in data set [1] (average of six dogs, saline 112.2, p<0.01), the “PVD, average” value amounted to 37.8 EPISODES/H. In data set [1] (setting [6]), the “PVD, individual dogs” value was 12 EPISODES/H and 10 EPISODES/H and 182 EPISODES/H and 4 EPISODES/H and 13 EPISODES/H and 6 EPISODES/H; the “VTAC, individual dogs” value is 1 EPISODES/H and 0 EPISODES/H and 27 EPISODES/H. In data set [2] (5 and 60 minutes of occlusion), the “regional myocardial blood flow to the ischemic myocardium versus saline” value was “significantly greater”. Besides, the “flow to normal (non-ischemic) myocardium” value in data set [2] (dog, in vivo) is listed as “did not alter flow to normal myocardium”. Further, the “collateral blood flow versus saline (radiolabelled microspheres)” value in data set [2] (dogs of Example IX) was “significantly greater”. Besides, the “adenosine release from lymphoblasts” value in data set [3] (48-hour pretreatment, 100-500 micromolar (FIG. 2)) is “enhances adenosine release”. In addition, the adenosine excreted result in data set [3] (48-hour pretreatment, 500 micromolar AICA riboside, about 1.4 without drug) is recorded as “about 2.3 nanomoles of adenosine/10^6 WI-L2 cells”. Moreover, the “adenosine release from lymphoblasts” value in data set [3] (18 hours preincubation before 2-deoxyglucose exposure (FIG. 7)) is given as “enhanced adenosine release”. In addition, in data set [3] (three-hour preincubation and four-hour incubation during 2-deoxyglucose treatment (FIGS. 8, 9)), the “adenosine release from lymphoblasts” value was “increased adenosine release”. In data set [4] (1 minute after reperfusion), the “adenosine washout on reperfusion” value was “significant rise”. In addition, the “peak adenosine level, coronary venous blood” value in data set [4] (1 minute of ischemia, saline peak 0.22 +/-0.08 at 10 minutes) amounted to 1.79 ± 0.35 µM. Besides, the “adenosine level, coronary venous blood” value in data set [4] (60 minutes of ischemia, saline undetectable) stood at 0.18 ± 0.15 µM. In data set [4] (before and during infusion), the “venous adenosine prior to ischemia” value is below 0.01 µM. Also, in data set [4] (dog, in vivo), the “adenosine in blood from the right atrium (systemic blood)” value is reported as “no detectable adenosine”. Further, the “AICA riboside in plasma and CSF” value in data set [5] (all dosages used, oral 5 to 2×10 mg/kg/day and intravenous 20 mg/kg/day) is reported as “could not be detected”. Moreover, in data set [5] (setting [7]), the “AICA riboside in plasma” value is listed as “undetectable in plasma” and the “AICA riboside triphosphate in the erythrocytes” value is given as “had similarly accumulated in the erythrocytes”. Further, the “concentrations of AICA riboside triphosphate reached in erythrocytes” value in data set [5] (oral as well as intravenous administration) is “of the same magnitude as those of GTP”.
